Laboratory results published in ChEMBL document CHEMBL4811298, “Discovery of novel class of histone deacetylase inhibitors as potential anticancer agents” (Bioorg Med Chem, 2021).
pIC50: −log10 of the molar value. Active and inactive are the calls of the source. The rule behind the calls is not given here.

Columns and labels:
MCF7 [1] = assay: Induction of apoptosis in human MCF7 cells assessed as downregulation of c-Myc gene expression at 1 uM measured after 24 hrs whole transcriptome analysis; type: functional, cell-based
Histone deacetylase 1 = Histone deacetylase 1 (Homo sapiens, UniProt Q13547); assay: (§1) Inhibition of C-terminal FLAG/His-tagged human recombinant HDAC1 (1 to 482 residues) expressed in baculovirus-infected Sf9 cells assessed as reduction in 7-amino-4-methylcoumarin release using fluorogenic HDAC substrate 3 measured every 5 mins by fluorescence based analysis
Histone deacetylase 1, sequence (Q13547 whole entry, the tested form may be a part): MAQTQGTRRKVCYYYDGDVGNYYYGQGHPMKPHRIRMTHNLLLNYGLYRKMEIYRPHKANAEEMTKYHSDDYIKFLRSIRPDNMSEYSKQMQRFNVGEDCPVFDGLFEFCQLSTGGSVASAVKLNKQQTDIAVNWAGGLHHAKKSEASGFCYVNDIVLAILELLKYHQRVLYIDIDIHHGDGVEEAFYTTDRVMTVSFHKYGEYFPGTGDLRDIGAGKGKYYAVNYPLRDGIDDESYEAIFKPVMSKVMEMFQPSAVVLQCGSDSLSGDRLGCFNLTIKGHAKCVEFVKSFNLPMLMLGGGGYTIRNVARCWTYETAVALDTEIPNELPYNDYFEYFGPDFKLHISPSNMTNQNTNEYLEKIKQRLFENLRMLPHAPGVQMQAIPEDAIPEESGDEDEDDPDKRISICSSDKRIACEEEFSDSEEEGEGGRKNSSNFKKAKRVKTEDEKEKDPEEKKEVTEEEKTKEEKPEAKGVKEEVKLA

Histone deacetylase 2 = Histone deacetylase 2 (Homo sapiens, UniProt Q92769); type: cell-based, Sf9
Histone deacetylase 2, sequence (Q92769 whole entry): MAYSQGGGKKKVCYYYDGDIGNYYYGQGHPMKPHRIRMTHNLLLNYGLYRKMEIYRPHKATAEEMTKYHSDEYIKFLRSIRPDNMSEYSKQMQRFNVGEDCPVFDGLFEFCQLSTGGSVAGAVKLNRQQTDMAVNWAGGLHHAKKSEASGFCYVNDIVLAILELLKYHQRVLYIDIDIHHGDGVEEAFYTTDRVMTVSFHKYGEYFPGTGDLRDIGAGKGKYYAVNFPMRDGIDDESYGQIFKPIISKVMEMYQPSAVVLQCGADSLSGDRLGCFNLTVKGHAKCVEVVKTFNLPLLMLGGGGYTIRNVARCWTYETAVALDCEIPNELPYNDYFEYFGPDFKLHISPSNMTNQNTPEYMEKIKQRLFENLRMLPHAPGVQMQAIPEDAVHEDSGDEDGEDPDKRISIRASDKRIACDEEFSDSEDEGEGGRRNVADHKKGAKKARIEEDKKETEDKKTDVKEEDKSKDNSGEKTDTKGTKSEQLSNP

[2] = target: Histone deacetylase 3/Nuclear receptor corepressor 2 (HDAC3/NCoR2) (Homo sapiens, UniProt O15379); assay: as §1, with “His-tagged” for “FLAG/His-tagged”, “full length HDAC3” for “HDAC1”, “428 residues)/N-terminal GST-tagged human recombinant NCOR2 (395 to 489” for “482”
Histone deacetylase 4 = Histone deacetylase 4 (Homo sapiens, UniProt P56524); assay: Inhibition of N-terminal GST-tagged/C-terminal His-tagged human recombinant HDAC4 (627 to 1084 residues) expressed in baculovirus-infected Sf9 cells assessed as reduction in 7-amino-4-methylcoumarin release measured every 5 mins by fluorescence based analysis
Histone deacetylase 4, sequence (P56524 whole entry, the tested form may be a part): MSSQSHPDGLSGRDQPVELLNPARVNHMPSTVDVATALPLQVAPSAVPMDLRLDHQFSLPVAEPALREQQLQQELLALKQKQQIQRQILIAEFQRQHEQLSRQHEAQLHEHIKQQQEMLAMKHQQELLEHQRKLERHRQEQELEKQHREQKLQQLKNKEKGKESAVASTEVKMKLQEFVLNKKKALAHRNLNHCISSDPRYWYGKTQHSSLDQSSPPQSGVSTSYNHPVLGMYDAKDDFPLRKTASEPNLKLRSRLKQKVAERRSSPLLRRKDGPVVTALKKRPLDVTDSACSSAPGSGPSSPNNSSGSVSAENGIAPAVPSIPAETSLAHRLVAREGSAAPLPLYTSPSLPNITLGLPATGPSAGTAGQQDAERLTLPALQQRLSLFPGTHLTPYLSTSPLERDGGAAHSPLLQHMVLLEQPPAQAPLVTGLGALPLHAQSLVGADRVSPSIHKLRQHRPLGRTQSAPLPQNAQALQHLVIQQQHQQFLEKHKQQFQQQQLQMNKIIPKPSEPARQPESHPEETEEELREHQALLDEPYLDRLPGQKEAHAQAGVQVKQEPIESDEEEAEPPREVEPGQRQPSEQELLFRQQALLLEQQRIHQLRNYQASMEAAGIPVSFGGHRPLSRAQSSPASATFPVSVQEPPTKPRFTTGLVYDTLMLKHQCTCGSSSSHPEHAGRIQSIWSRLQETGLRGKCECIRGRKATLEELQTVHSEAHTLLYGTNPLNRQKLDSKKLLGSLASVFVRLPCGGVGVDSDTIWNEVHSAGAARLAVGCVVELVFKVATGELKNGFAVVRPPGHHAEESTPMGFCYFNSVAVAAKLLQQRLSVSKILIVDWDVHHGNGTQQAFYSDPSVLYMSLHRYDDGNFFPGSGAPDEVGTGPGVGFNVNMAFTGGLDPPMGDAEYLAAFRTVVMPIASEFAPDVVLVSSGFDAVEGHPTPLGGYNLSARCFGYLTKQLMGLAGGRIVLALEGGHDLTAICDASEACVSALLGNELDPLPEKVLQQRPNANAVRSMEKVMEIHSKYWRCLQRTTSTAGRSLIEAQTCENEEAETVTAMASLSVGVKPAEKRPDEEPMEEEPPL

Histone deacetylase 5 [3] = target: T1, Histone deacetylase 5 (Homo sapiens, UniProt Q9UQL6); assay: Inhibition of N-terminal GST-tagged human recombinant full length HDAC5 expressed in baculovirus-infected Sf9 cells assessed as reduction in 7-amino-4-methylcoumarin release measured every 5 mins by fluorescence based analysis
T1 sequence (Q9UQL6 whole entry): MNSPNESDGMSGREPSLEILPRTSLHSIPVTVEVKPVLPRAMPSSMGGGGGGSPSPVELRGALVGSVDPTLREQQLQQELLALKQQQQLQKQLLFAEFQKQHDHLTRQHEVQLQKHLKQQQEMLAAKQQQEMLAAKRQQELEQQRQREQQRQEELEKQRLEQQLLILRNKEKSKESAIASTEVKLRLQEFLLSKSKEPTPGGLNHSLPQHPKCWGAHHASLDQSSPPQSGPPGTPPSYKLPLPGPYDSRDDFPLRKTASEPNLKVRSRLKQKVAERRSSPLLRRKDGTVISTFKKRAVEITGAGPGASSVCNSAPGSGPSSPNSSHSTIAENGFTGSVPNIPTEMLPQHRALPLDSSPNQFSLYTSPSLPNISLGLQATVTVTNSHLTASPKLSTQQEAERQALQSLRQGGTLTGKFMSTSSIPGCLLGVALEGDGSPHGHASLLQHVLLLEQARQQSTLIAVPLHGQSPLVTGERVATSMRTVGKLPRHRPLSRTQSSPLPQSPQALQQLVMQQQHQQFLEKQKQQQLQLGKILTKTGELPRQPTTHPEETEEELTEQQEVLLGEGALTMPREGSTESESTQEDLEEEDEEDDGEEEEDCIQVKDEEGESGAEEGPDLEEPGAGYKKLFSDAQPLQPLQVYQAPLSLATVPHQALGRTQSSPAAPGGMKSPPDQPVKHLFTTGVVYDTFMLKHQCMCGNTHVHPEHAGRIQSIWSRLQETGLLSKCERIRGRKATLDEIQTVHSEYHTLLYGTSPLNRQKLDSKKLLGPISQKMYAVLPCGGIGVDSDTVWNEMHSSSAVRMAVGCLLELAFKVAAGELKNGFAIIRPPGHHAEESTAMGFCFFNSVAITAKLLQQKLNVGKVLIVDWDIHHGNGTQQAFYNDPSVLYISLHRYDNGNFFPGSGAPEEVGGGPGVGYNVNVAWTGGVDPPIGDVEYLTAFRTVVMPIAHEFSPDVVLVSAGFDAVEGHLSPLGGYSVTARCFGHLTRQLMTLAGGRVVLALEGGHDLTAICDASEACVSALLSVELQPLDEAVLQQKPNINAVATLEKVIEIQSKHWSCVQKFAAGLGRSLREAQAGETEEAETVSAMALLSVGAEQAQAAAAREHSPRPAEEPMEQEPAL

Histone deacetylase 7 = target: T2, Histone deacetylase 7 (Homo sapiens, UniProt Q8WUI4); assay: Inhibition of N-terminal GST-tagged human HDAC7 (518 to end residues) expressed in baculovirus-infected Sf9 cells assessed as reduction in 7-amino-4-methylcoumarin release measured every 5 mins by fluorescence based analysis
T2 sequence (Q8WUI4 whole entry): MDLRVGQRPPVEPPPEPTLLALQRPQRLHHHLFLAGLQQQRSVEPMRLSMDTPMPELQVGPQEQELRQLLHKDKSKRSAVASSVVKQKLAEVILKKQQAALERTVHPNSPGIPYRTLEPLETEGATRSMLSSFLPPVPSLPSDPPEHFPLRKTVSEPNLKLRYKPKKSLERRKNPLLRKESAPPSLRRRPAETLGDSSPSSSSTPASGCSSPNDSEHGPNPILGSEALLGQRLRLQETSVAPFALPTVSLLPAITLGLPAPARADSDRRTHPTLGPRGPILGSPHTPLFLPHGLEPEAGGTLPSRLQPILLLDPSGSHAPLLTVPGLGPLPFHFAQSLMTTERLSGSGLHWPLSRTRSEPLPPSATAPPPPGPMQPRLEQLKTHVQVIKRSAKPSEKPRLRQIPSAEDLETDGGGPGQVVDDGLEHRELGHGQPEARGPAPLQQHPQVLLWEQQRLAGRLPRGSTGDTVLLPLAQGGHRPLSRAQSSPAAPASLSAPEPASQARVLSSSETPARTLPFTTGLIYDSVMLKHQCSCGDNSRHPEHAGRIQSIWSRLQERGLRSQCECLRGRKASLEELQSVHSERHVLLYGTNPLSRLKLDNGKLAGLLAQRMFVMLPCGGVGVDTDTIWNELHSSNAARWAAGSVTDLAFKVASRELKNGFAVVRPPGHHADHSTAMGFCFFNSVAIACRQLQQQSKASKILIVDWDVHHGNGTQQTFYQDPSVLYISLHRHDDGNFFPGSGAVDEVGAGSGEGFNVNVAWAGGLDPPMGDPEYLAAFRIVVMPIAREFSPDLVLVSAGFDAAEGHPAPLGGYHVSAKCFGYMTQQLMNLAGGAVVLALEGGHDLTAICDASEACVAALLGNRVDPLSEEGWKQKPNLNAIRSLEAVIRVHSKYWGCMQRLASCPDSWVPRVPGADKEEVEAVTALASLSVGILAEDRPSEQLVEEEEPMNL

Histone deacetylase 9 = Histone deacetylase 9 (Homo sapiens, UniProt Q9UKV0); assay: Inhibition of C-terminal His-tagged human HDAC9 (604 to 1066 residues) expressed in baculovirus-infected Sf9 cells assessed as reduction in 7-amino-4-methylcoumarin release measured every 5 mins by fluorescence based analysis
Histone deacetylase 9, sequence (Q9UKV0 whole entry, the tested form may be a part): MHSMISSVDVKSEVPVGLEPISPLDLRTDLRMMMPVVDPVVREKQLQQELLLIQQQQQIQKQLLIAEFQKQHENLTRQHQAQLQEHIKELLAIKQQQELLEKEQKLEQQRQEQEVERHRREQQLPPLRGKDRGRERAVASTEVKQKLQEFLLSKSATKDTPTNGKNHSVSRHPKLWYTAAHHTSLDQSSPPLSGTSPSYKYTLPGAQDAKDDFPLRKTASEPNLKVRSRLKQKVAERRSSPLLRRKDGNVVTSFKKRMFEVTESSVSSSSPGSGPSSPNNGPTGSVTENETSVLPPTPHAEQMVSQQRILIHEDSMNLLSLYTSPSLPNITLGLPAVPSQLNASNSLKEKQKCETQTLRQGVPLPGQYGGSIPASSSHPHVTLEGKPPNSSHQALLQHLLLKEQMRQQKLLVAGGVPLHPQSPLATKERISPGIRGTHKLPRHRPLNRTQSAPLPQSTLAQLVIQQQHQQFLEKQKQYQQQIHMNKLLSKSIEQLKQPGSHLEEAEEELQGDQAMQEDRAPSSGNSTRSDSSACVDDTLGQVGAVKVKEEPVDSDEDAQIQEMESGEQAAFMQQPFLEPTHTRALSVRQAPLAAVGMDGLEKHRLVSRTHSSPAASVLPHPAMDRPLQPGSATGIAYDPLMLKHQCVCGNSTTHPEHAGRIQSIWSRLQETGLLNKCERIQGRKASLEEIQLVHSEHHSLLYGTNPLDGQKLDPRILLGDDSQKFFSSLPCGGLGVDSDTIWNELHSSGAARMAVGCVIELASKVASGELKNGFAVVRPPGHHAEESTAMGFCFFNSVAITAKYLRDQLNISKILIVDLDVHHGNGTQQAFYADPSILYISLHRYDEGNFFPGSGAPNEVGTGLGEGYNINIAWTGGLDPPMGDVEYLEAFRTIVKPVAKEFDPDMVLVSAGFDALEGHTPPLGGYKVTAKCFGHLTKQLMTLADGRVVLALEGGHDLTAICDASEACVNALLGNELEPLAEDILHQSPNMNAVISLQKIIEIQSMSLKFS

MCF7 [4] = assay: Antiproliferative activity against human MCF7 cells assessed as reduction in cell viability incubated for 48 hrs by SRB assay; type: functional, cell-based; details: MCF7, 48 h
A549 = assay: Antiproliferative activity against human A549 cells assessed as reduction in cell viability incubated for 48 hrs by SRB assay; type: functional, cell-based; details: A549, 48 h
MCF7 [5] = assay: Induction of apoptosis in human MCF7 cells assessed as increase in caspase 3/7 activity at 1 to 3 uM measured after 48 hrs by ELISA; type: functional, cell-based; details: dose 1-3 µM
MCF7 [6] = assay: Induction of apoptosis in human MCF7 cells assessed as reduction in Bcl2 gene expression at 3 uM incubated for 24 hrs by whole transcriptome analysis; type: functional, cell-based
MCF7 [7] = assay: Induction of apoptosis in human MCF7 cells assessed as reduction in Bcl3 gene expression at 3 uM incubated for 24 hrs by whole transcriptome analysis; type: functional, cell-based
MCF7 [8] = assay: Induction of cell cycle arrest in human MCF7 cells assessed as accumulation at G1/S phase at 1 uM incubated for 4 hrs by PI staining based flow cytometric analysis; type: functional
MCF7 [9] = assay: Induction of cell cycle arrest in human MCF7 cells assessed as accumulation at subG1 phase at 1 uM incubated for 24 to 72 hrs by PI staining based flow cytometric analysis; type: functional; details: time 24-72 hrs
MCF7 [10] = assay: Induction of cell cycle arrest in human MCF7 cells assessed downregulation of CDK2 gene expression at 3 uM incubated for 24 hrs by whole transcriptome analysis; type: functional, cell-based
MCF7 [11] = assay: Induction of cell cycle arrest in human MCF7 cells assessed downregulation of CDK4 gene expression at 3 uM incubated for 24 hrs by whole transcriptome analysis; type: functional, cell-based
MCF7 [12] = assay: Induction of cell cycle arrest in human MCF7 cells assessed downregulation of CDK6 gene expression at 3 uM incubated for 24 hrs by whole transcriptome analysis; type: functional, cell-based
MCF7 [13] = assay: Downregulation of SIRT2 gene expression in human MCF7 cells at 3 uM incubated for 24 hrs by whole transcriptome analysis; type: functional, cell-based
MCF7 [14] = assay: Downregulation of SIRT4 gene expression in human MCF7 cells at 3 uM incubated for 24 hrs by whole transcriptome analysis; type: functional, cell-based
MCF7 [15] = assay: Downregulation of NFkB2 gene expression in human MCF7 cells at 3 uM incubated for 24 hrs by whole transcriptome analysis; type: functional, cell-based
MCF7 [16] = assay: Induction of cell cycle arrest in human MCF7 cells assessed downregulation of CDK1 gene expression at 3 uM incubated for 24 hrs by whole transcriptome analysis; type: functional, cell-based
MCF7 [17] = assay: Induction of cell cycle arrest in human MCF7 cells assessed downregulation of E2F1 gene expression at 3 uM incubated for 24 hrs by whole transcriptome analysis; type: functional, cell-based
MCF7 [18] = assay: Induction of cell cycle arrest in human MCF7 cells assessed downregulation of RB1 gene expression at 3 uM incubated for 24 hrs by whole transcriptome analysis; type: functional, cell-based
Histone deacetylase 5 [19] = target: T1, Histone deacetylase 5; assay: Potency index, ratio of vorinostat IC50 to test compound IC50 for Inhibition of N-terminal GST-tagged human recombinant full length HDAC5 expressed in baculovirus-infected Sf9 cells assessed as reduction in 7-amino-4-methylcoumarin release measured every 5 mins by fluorescence based analysis
MCF7 [20] = assay: Induction of apoptosis in human MCF7 cells assessed as downregulation of c-Myc protein expression at 1 to 3 uM measured after 48 hrs western blot analysis; type: functional, cell-based; details: dose 1-3 µM
MCF7 [21] = assay: Upregulation of NFkB2 gene expression in human MCF7 cells at 3 uM incubated for 24 hrs by whole transcriptome analysis; type: functional, cell-based
MCF7 [22] = assay: Induction of cell cycle arrest in human MCF7 cells assessed as accumulation at G2/M phase at 1 uM incubated for 4 hrs by PI staining based flow cytometric analysis; type: functional
MCF7 [23] = assay: Induction of cell cycle arrest in human MCF7 cells assessed as accumulation at G2/M phase at 1 uM incubated for 24 hrs by PI staining based flow cytometric analysis; type: functional
[24] = target: Histone deacetylase (Homo sapiens) (UniProt Q13547+O15379+Q9UBN7+Q92769+Q9UQL6+Q8WUI4+Q9BY41+Q96DB2+P56524+Q9UKV0+Q969S8); assay: Inhibition of HDAC in human MCF7 cells assessed as increase in acetylated histone H4 mRNA level at 3 uM incubated for 24 hrs by whole transcriptome analysis; type: cell-based
MCF7 [25] = assay: Upregulation of SIRT2 gene expression in human MCF7 cells at 3 uM incubated for 24 hrs by whole transcriptome analysis; type: functional, cell-based
MCF7 [26] = assay: Upregulation of SIRT4 gene expression in human MCF7 cells at 3 uM incubated for 24 hrs by whole transcriptome analysis; type: functional, cell-based

| pIC50 (Histone deacetylase 1) | pIC50 (Histone deacetylase 2) | pIC50 [2] | pIC50 (Histone deacetylase 4) | pIC50 (Histone deacetylase 5 [3]) | pIC50 (Histone deacetylase 7) | pIC50 (Histone deacetylase 9) | pIC50 (MCF7 [4]) | pIC50 (A549) | Structure (SMILES) | Activity (MCF7 [1]) | Activity (MCF7 [5]) | Activity (MCF7 [6]) | Activity (MCF7 [7]) | Activity (MCF7 [8]) | Activity (MCF7 [9]) | Activity (MCF7 [10]) | Activity (MCF7 [11]) | inhibition (MCF7 [13]) | inhibition (MCF7 [14]) | Activity (MCF7 [23]) | further results |
| --- | --- | --- | --- | --- | --- | --- | --- | --- | --- | --- | --- | --- | --- | --- | --- | --- | --- | --- | --- | --- | --- |
| < 5.00 | < 5.00 | < 5.00 | 5.78 | 6.51 | 5.31 | 6.09 | < 5.00 | < 5.00 | CC(C)(C)Nc1c(-c2cccc(-c3nc4cc(-c5noc(C(F)(F)F)n5)ccc4[nH]3)c2)nc2ccccn12 | Active | Active | Active | Active | Active | inactive | Active | Active | Active | Active | – | Activity (MCF7 [12]): Active; inhibition (MCF7 [15]): Active; Activity (MCF7 [16]): Active; Activity (MCF7 [17]): Active; Activity (MCF7 [18]): Active; Ratio IC50 (Histone deacetylase 5 [19]): > 33 |
| – | – | – | – | – | – | – | 7.42 | 7.05 | COc1cccc2c1C(=O)c1c(O)c3c(c(O)c1C2=O)C[C@@](O)(C(=O)CO)C[C@@H]3O[C@H]1C[C@H](N)[C@H](O)[C@H](C)O1 [DOXORUBICIN] | – | – | – | – | – | – | – | – | – | – | – | – |
| < 5.00 | < 5.00 | 5.67 | < 5.00 | 4.91 | 5.21 | 5.89 | 6.15 | < 5.00 | CC(C)(C)Nc1c(-c2cccc(C(=O)Nc3ccc(F)cc3N)c2)nc2ccccn12 | Active | Active | Active | Active | – | Active | – | – | Active | Active | Active | Activity (MCF7 [20]): Active; Activity (MCF7 [21]): Active; Activity (MCF7 [22]): Active; inhibition [24]: Active |
| – | – | – | – | – | – | – | – | – | O=C(CCCCCCC(=O)Nc1ccccc1)NO | Active | Active | – | inactive | Active | – | – | – | – | – | Active | Activity (MCF7 [20]): Active; Activity (MCF7 [21]): Active; Activity (MCF7 [25]): Active; Activity (MCF7 [26]): Active |
| – | – | 5.96 | 7.72 | 7.21 | – | 7.32 | – | – | O=C(NC1CCN(Cc2ccccc2)C1)c1ccc(-c2noc(C(F)(F)F)n2)cc1 (stereo not given) | – | – | – | – | – | – | – | – | – | – | – | – |

| Structure (SMILES) | pIC50 (Histone deacetylase 1) | pIC50 (Histone deacetylase 2) | pIC50 [2] | pIC50 (Histone deacetylase 4) | pIC50 (Histone deacetylase 5 [3]) | pIC50 (Histone deacetylase 7) | pIC50 (Histone deacetylase 9) | pIC50 (MCF7 [4]) | pIC50 (A549) | Activity (MCF7 [1]) | Activity (MCF7 [5]) | Activity (MCF7 [6]) | Activity (MCF7 [7]) | Activity (MCF7 [8]) | Activity (MCF7 [9]) | Activity (MCF7 [10]) | Activity (MCF7 [11]) | inhibition (MCF7 [13]) | inhibition (MCF7 [14]) | Activity (MCF7 [23]) | further results |
| --- | --- | --- | --- | --- | --- | --- | --- | --- | --- | --- | --- | --- | --- | --- | --- | --- | --- | --- | --- | --- | --- |
| CC(C)(C)Nc1c(-c2ccc(-c3noc(C(F)(F)F)n3)cc2)nc2ccccn12 | < 5.00 | < 5.00 | < 5.00 | 5.45 | 6.09 | 5.16 | 5.64 | < 5.00 | < 5.00 | – | Active | Active | Active | – | Active | Active | Active | Active | Active | Active | Activity (MCF7 [22]): Active; Activity (MCF7 [12]): Active; inhibition (MCF7 [15]): Active; Activity (MCF7 [16]): Active; Activity (MCF7 [17]): Active; Activity (MCF7 [18]): Active |
